According to PMC8049364, “Quantification of Macrophage-Driven Inflammation During Myocardial Infarction with ^18F-LW223, a Novel TSPO Radiotracer with Binding Independent of the rs6971 Human Polymorphism” (Journal of Nuclear Medicine, 2021):

Target: T1, TSPO (Rattus norvegicus, UniProt P16257)
T1 construct: Thirty-three adult male Sprague–Dawley rats; from tissue; host or cells: living adult male Sprague-Dawley rats; heart, LV anterior wall, lung and brain VOIs
Experiment: PET/CT imaging and 2-tissue-compartment kinetic modelling in naïve and PK11195-blocked rats
Type: in vivo
Parameters: K1 (2T analysis), mean / k2 (2T analysis), mean / k3 (2T analysis), mean / k4 (2T analysis), mean / VT (2T analysis), mean: unit not given here
Protocol: Thirty-two PET scans were performed with ^18F-LW223 (17.8 ± 1.5 MBq, intravenous bolus, mean ± SEM). Naïve and MI rat scans were acquired immediately after intravenous bolus injection of ^18F-LW223. […] Dosimetry studies were conducted using mice and 240-min PET scans.
A commercially available system (Twilite2; Swisstrace) was used for the measurement of blood radioactivity as previously described ([17]). The whole-blood arterial input function measured by the automatic blood sampler was corrected for the plasma–to–whole-blood ratio and for metabolism in vivo.
Data were acquired using a PET/CT small-animal scanner (nanoPET/CT; Mediso). A CT scan (semicircular full trajectory, maximum field of view, 480 projections, 50 kVp, 300 ms, and 1:4 binning) was acquired for attenuation correction. Immediately after radiotracer administration, a 120- or 240-min emission scan was obtained using 3-dimensional 1:5 mode. For rat studies, rebinning was 18 × 10 s, 2 × 30 s, 1 × 60 s, 2 × 2 min, 10 × 5 min, 6 × 10 min, or 18 × 10 min. For mouse studies, rebinning was 4 × 5 min, 4 × 10 min, or 9 × 20 min. Rat PET studies were reconstructed using the iterative Tera-Tomo 3-dimensional reconstruction algorithm (Mediso), which includes point-spread correction, and the following settings: 4 iterations, 6 subsets, full detector model, low regularization, spike filter on, voxel size of 0.4 mm, and 400- to 600-keV energy window. Mouse dosimetry PET data were reconstructed using filtered backprojection, a voxel size of 0.4 mm, and a 400- to 600-keV energy window. All PET data were corrected for randoms, scatter, and attenuation.
Reconstructed scans were imported into PMOD, version 3.8 (PMOD Technologies). Volumes of interest (VOIs) were manually drawn around the brain, heart, and lung using CT images. To sample the infarct area (or an equivalent area in naïve hearts), averaged PET images (0–120 min) were used to place 3 spheric VOIs at the center of the infarct territory within the ventricular wall (1.5 mm^3). […] Time–activity curves were generated, and SUVs were calculated as concentration in the VOI divided by injected dose divided by animal weight. Kinetic modeling was performed using the 2-tissue-compartment model to estimate the kinetic rate constants K1–k4 and the total volume of distribution (VT) in different tissues. Blood volume fraction (VB) was not modeled in this study. Two-tissue-compartment modeling was selected as the preferred model on the basis of a comparison of goodness and robustness of fitting versus several other models (Supplemental Fig. 3; Supplemental Table 2). The binding potential relative to nondisplaceable volume (BPND) was defined as k3/k4 ([19]). The transfer-corrected BPND, termed BPTC, was formulated as follows:Eq. 1 BPTC=k3/k4÷K1,

[1] = Brain, Blocked Naive (PK11195, 1mg/kg) n = 3
[2] = Global Heart, Blocked Naive (PK11195, 1mg/kg) n = 3
[3] = LV Anterior Wall, Blocked Naive (PK11195, 1mg/kg) n = 3
[4] = Lung, Blocked Naive (PK11195, 1mg/kg) n = 3

K1 (2T analysis), mean [1]: 0.06 | VT (2T analysis), mean [1]: 0.93 | k2 (2T analysis), mean [1]: 0.11 | k3 (2T analysis), mean [1]: 2.324 | k3/k4 (2T analysis), mean [1]: 0.71 | k4 (2T analysis), mean [1]: 2.33 | K1 (2T analysis), mean (Brain, Naive n = 6): 0.14 | VT (2T analysis), mean (Brain, Naive n = 6): 1.6 | k2 (2T analysis), mean (Brain, Naive n = 6): 0.18 | k3 (2T analysis), mean (Brain, Naive n = 6): 0.016 | k3/k4 (2T analysis), mean (Brain, Naive n = 6): 1.22 | k4 (2T analysis), mean (Brain, Naive n = 6): 0.01 | K1 (2T analysis), mean [2]: 0.19 | VT (2T analysis), mean [2]: 4.56 | k2 (2T analysis), mean [2]: 0.23 | k3 (2T analysis), mean [2]: 0.721 | k3/k4 (2T analysis), mean [2]: 4.52 | k4 (2T analysis), mean [2]: 0.13 | K1 (2T analysis), mean (Global Heart, Naive n = 6): 0.58 | VT (2T analysis), mean (Global Heart, Naive n = 6): 9.93 | k2 (2T analysis), mean (Global Heart, Naive n = 6): 0.33 | k3 (2T analysis), mean (Global Heart, Naive n = 6): 0.031 | k3/k4 (2T analysis), mean (Global Heart, Naive n = 6): 4.77 | k4 (2T analysis), mean (Global Heart, Naive n = 6): 0.01 | K1 (2T analysis), mean [3]: 0.28 | VT (2T analysis), mean [3]: 75.25 | k2 (2T analysis), mean [3]: 0.08 | k3 (2T analysis), mean [3]: 0.855 | k3/k4 (2T analysis), mean [3]: 12.64 | k4 (2T analysis), mean [3]: 0.23 | K1 (2T analysis), mean (LV Anterior Wall, Naive n = 6): 0.9 | VT (2T analysis), mean (LV Anterior Wall, Naive n = 6): 29.95 | k2 (2T analysis), mean (LV Anterior Wall, Naive n = 6): 0.26 | k3 (2T analysis), mean (LV Anterior Wall, Naive n = 6): 0.033 | k3/k4 (2T analysis), mean (LV Anterior Wall, Naive n = 6): 7.99 | k4 (2T analysis), mean (LV Anterior Wall, Naive n = 6): 0.00 | K1 (2T analysis), mean [4]: 0.16 | VT (2T analysis), mean [4]: 2.2 | k2 (2T analysis), mean [4]: 0.35 | k3 (2T analysis), mean [4]: 0.181 | k3/k4 (2T analysis), mean [4]: 3.19 | k4 (2T analysis), mean [4]: 0.05 | K1 (2T analysis), mean (Lung, Naive n = 6): 0.94 | VT (2T analysis), mean (Lung, Naive n = 6): 6.94 | k2 (2T analysis), mean (Lung, Naive n = 6): 0.32 | k3 (2T analysis), mean (Lung, Naive n = 6): 0.031 | k3/k4 (2T analysis), mean (Lung, Naive n = 6): 1.38 | k4 (2T analysis), mean (Lung, Naive n = 6): 0.02 | specificity of in vivo binding to TSPO (PK11195 1 mg/kg intravenously, blocking and displacement): blocked and displaced by PK11195 | BPTC (anterior wall of naïve animals): 10.0 ± 2.4 cm^3/mL/min | Peak SUV, brain (naïve rat): 0.83 ± 0.18 g/mL | SUVpeak, heart (rat): 2.5 | SUVpeak, lung (rat): 4.0 | VT in the brain (rat): 1.1–2.2 mL/cm^3
Structure (SMILES): CC[C@@H](C)N(C)C(=O)c1nc2ccccc2c(-c2ccccc2)c1C[18F] [^18F-LW223]
excretion routes (mice and rats): both the urinary and the hepatobiliary excretion routes
